Publication PMC4654502, “Early Gelatinase Activity Is Not a Determinant of Long-Term Recovery after Traumatic Brain Injury in the Immature Mouse” (PLoS ONE, 2015)

Key:
gelatinase activity = test: In situ zymography (DQ-gelatin) of brain sections after TBI at p21; format: in vivo, mouse; conditions: 25 mg/kg s.c. at 2, 4, 24 and 48 h post-injury; brains 1 h after last injection
Protocol: (§1) The treatment regime was based upon several considerations. […] Thirdly, we limited treatment to a period of 48 h post-injury in order to minimize potential off-target effects on ongoing brain development processes at this time, given the known roles that these gelatinases play in postnatal synaptic maturation. For acute studies (gelatin zymography and histology) animals were euthanized at 4 hours and for in situ zymography, they were euthanized 1 hour after the last injection. For long-term studies (behavioral and cognitive assessments and histology) animals were euthanized at ~2 months post-injury. Euthanasia was by overdose with 2.5% Avertin i.p. followed by decapitation or cardiac transperfusion as described below.
One hour after the last injection, brains were collected and embedded in optimal cutting temperature medium (OCT, Tissue-Tek, CA). The tissue blocks were cryosectioned at 10μm thickness and subjected to in-situ zymography, as described by Oh et al.. Briefly, the sectioned tissues were stained with DQ-gelatin (Molecular Probes, Inc., OR, USA) to detect gelatinase activity, followed by incubation with DAPI solution to detect nuclei. […]

[1] = tested on: controlled cortical impact TBI at p21; test: Elevated plus maze at adulthood after TBI at p21; format: in vivo, male C57Bl/6J mice; conditions: 25 mg/kg s.c. at 2, 4, 24, 48 h post-injury; tested ~2 months post-injury
Protocol: (§2) The controlled cortical impact model of TBI was used as previously described. TBI to the p21 mouse approximates a toddler-aged child, based upon the structural, biochemical and behavioral characteristics of this age. Pups were anaesthetized with 1.25% 2,2,2-tribromoethanol (Avertin; Sigma-Aldrich, St. Louis, MO) in isotonic saline (i.p. bolus at 0.02 mL/g body weight). After craniotomy, mice were subjected to a controlled cortical impact at 4.5 m/s velocity and 1.73 mm depth of penetration, for a sustained depression of 150 ms, using a 3.0 mm convex impactor tip. Mice were maintained on a water-circulating heating pad throughout surgery and recovery. Following impact, the scalp was closed with sutures and each animal administered 0.5 ml of isotonic saline subcutaneously (s.c.) to prevent post-operative dehydration. Sham-operated mice underwent identical surgical procedures, including craniotomy, without receiving the cortical impact. All mice were closely monitored for 1–2 hours post-surgery until return of the righting reflex and full mobilization. […]
The elevated plus maze (Kinder Scientific, Poway, CA) assesses anxiety based upon the natural tendency of rodents to avoid the open arms in preference for enclosed areas. […] Times spent in the open versus closed arms was assessed as previously described.

[2] = tested on: controlled cortical impact TBI at p21; test: Morris water maze at adulthood after TBI at p21; format: in vivo, male C57Bl/6J mice; conditions: 25 mg/kg s.c. at 2, 4, 24, 48 h post-injury
Protocol: (§3) The controlled cortical impact model of TBI was used as previously described. TBI to the p21 mouse approximates a toddler-aged child, based upon the structural, biochemical and behavioral characteristics of this age. Pups were anaesthetized with 1.25% 2,2,2-tribromoethanol (Avertin; Sigma-Aldrich, St. Louis, MO) in isotonic saline (i.p. bolus at 0.02 mL/g body weight). After craniotomy, mice were subjected to a controlled cortical impact at 4.5 m/s velocity and 1.73 mm depth of penetration, for a sustained depression of 150 ms, using a 3.0 mm convex impactor tip. Mice were maintained on a water-circulating heating pad throughout surgery and recovery. Following impact, the scalp was closed with sutures and each animal administered 0.5 ml of isotonic saline subcutaneously (s.c.) to prevent post-operative dehydration. Sham-operated mice underwent identical surgical procedures, including craniotomy, without receiving the cortical impact. All mice were closely monitored for 1–2 hours post-surgery until return of the righting reflex and full mobilization. Mice were then returned to group-housing, and weighed post-surgery at days 1, 3, and weekly thereafter till the end of the study.
as §1
Mice were randomized for behavior testing and all behavior testing was performed by individuals blinded to injury and treatment. Behavioral and cognitive testing of brain injured mice and sham controls commenced at 2 months post-injury (~ 3 months of age; n = 15/group). An extensive battery of behavioral assessments was performed in the following order: open field, rotarod, elevated plus maze, three-chamber social task, resident-intruder, and Morris water maze (MWM). […]
The MWM was used to assess spatial learning and memory as previously described, using a 140 cm-diameter circular pool filled with opaque water (22°C). […] Movements were tracked with an overhead mounted video camera interfaced with Noldus EthoVision software (Noldus IT, Tacoma, WA), for quantification of the cumulative distance to and latency to locate the platform, as well as swim velocity (cm/s). […]

[3] = tested on: controlled cortical impact TBI at p21; test: Resident-intruder test at adulthood after TBI at p21; format: in vivo, male C57Bl/6J mice; conditions: 25 mg/kg s.c. at 2, 4, 24, 48 h post-injury; tested at adulthood
Protocol: as §2
To assess social investigative behaviors, a novel stimulus mouse (matched for strain, age and sex) was presented into the established home cage of the test mouse, and investigative behaviors were quantified from video recordings as previously described.

[4] = tested on: controlled cortical impact TBI at p21; test: Three-chamber social approach task at adulthood after TBI at p21; format: in vivo, male C57Bl/6J mice; conditions: 25 mg/kg s.c. at 2, 4, 24, 48 h post-injury
Protocol: as §3, with “study. […]” for “study.”
The three-chamber paradigm allows for the evaluation of social affiliation and social recognition in mice. […] Data were expressed as time spent in each chamber (% of total time).

MMP-9 = conditions: cited from earlier work

SMILES: O=S(=O)(CC1CS1)c1ccc(Oc2ccc(O)cc2)cc1 (stereo not shown) [p-OH SB-3CT]
- gelatinase activity post-injury (in situ zymography) compared to vehicle control (gelatinase activity): attenuated gelatinase activity
- time spent in the open arms of the elevated plus maze [1]: not affected by either TBI or p-OH SB-3CT treatment
- MWM probe trials, effect of injury on spatial memory retention ([2]; four probe trials): not rescued by acute inhibition of gelatinases with p-OH SB-3CT
- MWM cumulative distance to the target, visible and hidden sessions ([2]; tested at adulthood): no effect of p-OH SB-3CT treatment
- MWM latency to reach the platform, visible and hidden platform sessions ([2]; tested at adulthood): did not modify this injury-related behavior
- MWM swim velocity during visible platform trials ([2]; tested at adulthood): not influenced
- injury-induced reduction in social investigation (resident-intruder) [3]: independent of treatment with p-OH SB-3CT
- three-chamber task stage 2, preference for sociability ([4]; groups = injury or drug treatment): no overall differences between groups
- three-chamber task stage 3, lack of preference for social novelty after TBI ([4]; tested at adulthood): not rescued by p-OH SB-3CT
- Ki (MMP-9): 160 ± 80 nM
